Measurements published in publication PMC8292346, “Dysfunction of the key ferroptosis-surveilling systems hypersensitizes mice to tubular necrosis during acute kidney injury” (Nature Communications, 2021).
Values joined by “and” are separate entries in the source; they are usually repeats but may differ in a detail not shown here. Identical values can stand only once.

Experiments:
[1] = molecular target: Potassium Channel hERG (human) (Homo sapiens, UniProt Q12809); test: Off-target radioligand binding screen; settings: Nec-1f 10 µM
Potassium Channel hERG (human), sequence (Q12809 whole entry): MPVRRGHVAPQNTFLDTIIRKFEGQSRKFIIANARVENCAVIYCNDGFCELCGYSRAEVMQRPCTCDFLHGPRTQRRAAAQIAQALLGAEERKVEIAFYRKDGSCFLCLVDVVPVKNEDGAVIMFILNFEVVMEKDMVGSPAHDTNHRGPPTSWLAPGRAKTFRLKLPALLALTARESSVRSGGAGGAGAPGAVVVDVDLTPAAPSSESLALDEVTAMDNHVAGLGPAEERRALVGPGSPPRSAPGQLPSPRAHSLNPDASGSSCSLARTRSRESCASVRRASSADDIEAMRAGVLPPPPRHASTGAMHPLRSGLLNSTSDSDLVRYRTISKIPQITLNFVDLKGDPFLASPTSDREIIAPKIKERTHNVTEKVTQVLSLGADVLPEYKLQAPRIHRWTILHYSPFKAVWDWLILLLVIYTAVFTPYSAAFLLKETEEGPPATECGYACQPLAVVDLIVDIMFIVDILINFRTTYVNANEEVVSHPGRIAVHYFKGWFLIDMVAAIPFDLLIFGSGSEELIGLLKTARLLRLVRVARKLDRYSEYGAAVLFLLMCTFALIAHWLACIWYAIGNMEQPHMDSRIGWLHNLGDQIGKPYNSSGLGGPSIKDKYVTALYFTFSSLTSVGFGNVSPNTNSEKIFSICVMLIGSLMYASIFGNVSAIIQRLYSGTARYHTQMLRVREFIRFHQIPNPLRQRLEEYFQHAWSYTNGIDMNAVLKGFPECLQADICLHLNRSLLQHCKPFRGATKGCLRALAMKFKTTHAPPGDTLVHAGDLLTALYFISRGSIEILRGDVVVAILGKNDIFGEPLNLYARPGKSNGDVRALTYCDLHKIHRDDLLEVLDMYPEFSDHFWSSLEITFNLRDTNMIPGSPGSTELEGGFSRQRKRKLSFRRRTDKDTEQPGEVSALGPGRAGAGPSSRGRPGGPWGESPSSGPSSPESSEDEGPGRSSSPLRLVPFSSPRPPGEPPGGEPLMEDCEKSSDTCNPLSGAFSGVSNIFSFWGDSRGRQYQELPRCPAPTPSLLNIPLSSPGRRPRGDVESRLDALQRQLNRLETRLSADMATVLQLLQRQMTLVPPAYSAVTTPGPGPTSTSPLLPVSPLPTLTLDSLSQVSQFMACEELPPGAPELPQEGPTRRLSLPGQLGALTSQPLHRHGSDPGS

[2] = molecular target: 5-HT1B (h) (Homo sapiens, UniProt P28222); test: Off-target radioligand binding screen; settings: read-out: 5-HT1B (h) ($): inhibition of radioligand binding
5-HT1B (h), sequence (P28222 whole entry): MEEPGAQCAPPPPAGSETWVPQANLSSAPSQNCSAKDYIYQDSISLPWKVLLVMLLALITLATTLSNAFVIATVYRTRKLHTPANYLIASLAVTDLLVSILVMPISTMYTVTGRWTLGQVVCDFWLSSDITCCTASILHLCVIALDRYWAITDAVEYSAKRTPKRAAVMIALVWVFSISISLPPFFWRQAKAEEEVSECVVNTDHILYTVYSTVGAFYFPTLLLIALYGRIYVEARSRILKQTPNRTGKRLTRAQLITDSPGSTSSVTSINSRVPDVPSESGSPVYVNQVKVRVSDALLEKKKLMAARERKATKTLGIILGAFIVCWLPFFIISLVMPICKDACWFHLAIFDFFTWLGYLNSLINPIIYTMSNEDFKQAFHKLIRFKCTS

[3] = tested on: KV channel; test: Off-target radioligand binding screen; settings: Nec-1f 10 µM
[4] = molecular target: 5-HT transporter (h) (Homo sapiens, UniProt P31645); test: Off-target radioligand binding screen; settings: read-out: 5-HT transporter (h) ($): inhibition of radioligand binding
5-HT transporter (h), sequence (P31645 whole entry): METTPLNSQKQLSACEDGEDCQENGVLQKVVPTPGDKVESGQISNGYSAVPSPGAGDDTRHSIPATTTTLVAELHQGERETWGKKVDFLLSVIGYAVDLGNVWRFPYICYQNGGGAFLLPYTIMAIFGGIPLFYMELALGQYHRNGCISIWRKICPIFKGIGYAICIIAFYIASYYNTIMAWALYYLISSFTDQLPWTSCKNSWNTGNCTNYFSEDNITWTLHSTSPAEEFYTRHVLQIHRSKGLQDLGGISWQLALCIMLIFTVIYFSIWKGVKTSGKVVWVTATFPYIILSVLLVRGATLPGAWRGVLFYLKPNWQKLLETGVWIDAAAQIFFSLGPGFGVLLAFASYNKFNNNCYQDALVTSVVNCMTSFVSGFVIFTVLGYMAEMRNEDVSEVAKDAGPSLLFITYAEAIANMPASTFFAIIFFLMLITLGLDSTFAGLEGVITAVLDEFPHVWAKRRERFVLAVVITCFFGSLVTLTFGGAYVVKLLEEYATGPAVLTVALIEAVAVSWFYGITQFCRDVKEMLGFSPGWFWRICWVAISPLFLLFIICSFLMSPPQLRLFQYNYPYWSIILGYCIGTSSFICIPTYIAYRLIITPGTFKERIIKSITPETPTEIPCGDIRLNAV

[5] = tested on: Ca2+ channel (L, dihydropyridine site); test: Off-target radioligand binding screen; settings: Nec-1f 10 µM
[6] = Inhibited co-autoxidation of cumene and STY-BODIPY (radical-trapping antioxidant activity); settings: AIBN-initiated; even at 5-fold higher concentration than PMC
[7] = molecular target: 5-HT2B(h) (Homo sapiens, UniProt P41595); test: Off-target radioligand binding screen; settings: read-out: 5-HT2B(h) (#): inhibition of radioligand binding
5-HT2B(h), sequence (P41595 whole entry): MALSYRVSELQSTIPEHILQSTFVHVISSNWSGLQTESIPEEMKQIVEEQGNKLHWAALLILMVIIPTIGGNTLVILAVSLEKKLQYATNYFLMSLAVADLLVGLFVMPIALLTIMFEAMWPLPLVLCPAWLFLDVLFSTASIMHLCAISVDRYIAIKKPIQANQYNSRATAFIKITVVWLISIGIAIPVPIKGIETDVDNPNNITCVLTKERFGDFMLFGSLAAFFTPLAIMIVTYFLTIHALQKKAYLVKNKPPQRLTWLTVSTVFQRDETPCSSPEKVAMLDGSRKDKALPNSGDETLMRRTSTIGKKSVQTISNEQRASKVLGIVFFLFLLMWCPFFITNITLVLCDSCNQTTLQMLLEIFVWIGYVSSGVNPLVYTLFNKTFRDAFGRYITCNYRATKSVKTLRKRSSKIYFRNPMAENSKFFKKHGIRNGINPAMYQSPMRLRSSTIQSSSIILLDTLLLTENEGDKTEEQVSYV

[8] = tested on: C57BL/6N mice; test: Acute oxalate nephropathy (CaOx-induced AKI); type: in vivo, mouse
Experimental: C57BL/6N mice were procured from Charles River Laboratories (Sulzfeld, Germany) and co-housed in groups of four in filter top cages with unlimited access to food and water. Cages, nestlets, food, and water were sterilized by autoclaving before use. Mice received a single intraperitoneal (i.p.) injection of 100 mg/kg sodium oxalate (Santa Cruz Biotechnology) and 3% sodium oxalate in drinking water and kidneys were harvested after 24 h. […] Blood and kidneys were collected at sacrifice by cervical dislocation. The middle section of each kidney was fixed for 24 h in formalin to be embedded in paraffin for histological analysis. Intrarenal crystal precipitations were quantified by Pizzolato staining. The experimental procedure was approved by the Regierung von Oberbayern, München, Germany (ROB-55.2-2532.Vet_02-18-127).
The tubular injury was scored by detecting the percentage of necrotic structures, dilated tubules, casts and cellular infiltrates per HPF. To do so a grid with a raster size of 2.5% of the total image area was imposed on top of each image and the number of squares covering either of the histopathological features was counted individually or as a composite (summary score). Pizzolato’s staining visualized calcium oxalate crystals and crystal deposit formation in the kidney was evaluated the following: no deposits = 0 point; crystals in papillary tip = 1 point; crystals in cortical medullary junction = 2 points; crystals in cortex = 3 points.
A TUNEL kit (Cell death detection kit, Roche) was used to quantify the number of cells with DNA strand breaks per HPF. The green fluorescent area was measured and the number of stained cells per slide was counted.

[9] = molecular target: D1(h) (Homo sapiens, UniProt P21728); test: Off-target radioligand binding screen; settings: read-out: D1(h) ($): inhibition of radioligand binding
D1(h), sequence (P21728 whole entry): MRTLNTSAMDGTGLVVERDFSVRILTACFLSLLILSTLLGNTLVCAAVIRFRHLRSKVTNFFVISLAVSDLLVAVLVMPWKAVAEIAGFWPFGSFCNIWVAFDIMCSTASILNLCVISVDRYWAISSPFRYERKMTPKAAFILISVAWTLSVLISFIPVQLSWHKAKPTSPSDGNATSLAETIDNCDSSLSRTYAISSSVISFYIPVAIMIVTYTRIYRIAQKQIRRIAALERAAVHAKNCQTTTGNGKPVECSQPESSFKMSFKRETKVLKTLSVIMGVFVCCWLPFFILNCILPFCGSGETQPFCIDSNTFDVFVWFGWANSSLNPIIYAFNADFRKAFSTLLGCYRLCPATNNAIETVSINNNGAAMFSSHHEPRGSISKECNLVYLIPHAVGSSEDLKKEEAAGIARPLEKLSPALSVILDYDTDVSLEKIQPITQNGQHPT

[10] = 24 h after CaOx, 1.65 mg/kg Nec-1f, individual animals, 1.65 mg/kg

In the case of `CN1C(=O)C(Cc2c[nH]c3c(Cl)cccc23)NC1=S` (centres unmarked) [Nec-1f], the “Potassium Channel hERG (human)- [3H] Dofetilide: inhibition of radioligand binding” value [1] is reported as -2.7%, the inhibition at 10 µM [2] is reported as -12.9% and the “KV channel ($): inhibition of radioligand binding” value [3] is reported as 1.7%. For the same compound, the inhibition at 10 µM [4] was -5.9%, the “Ca2+ channel (L, dihydropyridine site) ($): inhibition of radioligand binding” value [5] was 40% and the “Radical-trapping activity in cumene/STY-BODIPY co-autoxidation” value [6] was “no activity”. For the same compound, the inhibition at 10 µM [7] was 16.7%, the “CaOx crystal deposition vs vehicle” value ([8]; 1.65 mg/kg body weight) was “comparable in both groups” and the “Tubular injury vs vehicle” value ([8]; 1.65 mg/kg body weight) was “reduced tubular injury”. The Serum creatinine [8, 10] was 75 µmol/L and 84 µmol/L and 73 µmol/L and 71 µmol/L and 67 µmol/L and 78 µmol/L and 89 µmol/L and 69 µmol/L, the Serum urea [8, 10] was 70.6 mmol/L and 52 mmol/L and 57.6 mmol/L and 47.8 mmol/L and 51.8 mmol/L and 64.8 mmol/L and 59.8 mmol/L and the “Number of TUNEL-positive cells vs vehicle” value ([8]; CaOx) was “significantly decreased”. For the same compound, the “Serum creatinine vs vehicle” value ([8]; CaOx, 1.65 mg/kg) was “lower concentrations”, the “Serum urea vs vehicle” value ([8]; CaOx, 1.65 mg/kg) was “lower concentrations” and the TUNEL ([8]; kidneys 24 h after onset of CaOx treatment, Nec-1f, individual animals) was 12.5 positive cells per HPF and 23.5 positive cells per HPF and 14 positive cells per HPF and 17 positive cells per HPF and 9.5 positive cells per HPF and 16 positive cells per HPF and 15 positive cells per HPF. For the same compound, the “Tubular injury (PAS)” value ([8]; sodium oxalate, 1.65 mg/kg Nec-1f, individual animals, 1.65 mg/kg) was 5.4 % area per HPF and 19.2 % area per HPF and 9 % area per HPF and 17.2 % area per HPF and 7.8 % area per HPF and 11.7 % area per HPF and 12.7 % area per HPF and the inhibition at 10 µM [9] was 2.3%.
